Bridge positions count the residues as written; N and C are the ends. Square brackets hold non-standard residues; d marks the D form. Primed or numbered codes have the meaning given here. Peptide text beside a SMILES is read from it. I, II: the chains in the order shown. * marks the point of attachment. NOTA‑1 = 1,4,7-triazacyclononane-N,N',N''-triacetic acid phenyl thiourea; X1 = O=C(O)CN1CCN(CC(=O)O)CC(Cc2ccc(NC(=S)*)cc2)N(CC(=O)O)CC1; Pro(trans-4-F) = O=C(O)[C@@H]1C[C@@H](F)CN1; Pro(4R-Me) = C[C@H]1CN[C@H](C(=O)O)C1; Tic = O=C(O)[C@@H]1Cc2ccccc2CN1; PEG2′ = not defined here
Legend:
Human Granzyme B [1] = biological target: Human Granzyme B (Homo sapiens, UniProt P10144); experiment: Granzyme B biochemical inhibition assay (fluorescence); conditions: 8 nM granzyme B; values below 8 nM reported as <8 nM
Experimental: Compounds to be tested as inhibitors were manually prepared in a 2-fold serial dilutions in DMSO, spanning 200 uM to 0.39 uM in a Labcyte Echo qualified low dead volume 384-well plate. Then an ECHO acoustic liquid handler was used to dispense 125 nL of each compound from 384-well plate into a PerkinElmer Proxiplate-384 Plus F assay plate. For the positive control of inhibitor, (S)-3-((3S,6S)-3-((2S,3S)-2-acetamido-3-methylpentanamido)-4-oxo-1,2,3,4,6,7-hexahydroazepino[3,2,1-hi]indole-6-carboxamido)-4-oxobutanoic acid (see C. A. Willoughby et al./Bioorg. Med. Chem. Lett. 12 (2002) 2197-2200 2199) was used at 2 uM assay concentration. For no inhibition control, DMSO was used. Each compound was run in duplicate.
Once the compounds were dispensed in the plates, enzyme mix and substrate mix were prepared. Enzyme mix was prepared by preparing a mixture of 300 uL granzyme B (final concentration 8 nM) and 10.8 mL of assay buffer (from Sigma kit). Substrate mix was prepared by combining 500 uL substrate (from Sigma kit) and 3 mL of assay buffer (from Sigma kit). Enzyme mixture was loaded on BioRaptr and 9.25 uL were added to each well of the assay plate containing compounds. The plate was incubated at room temperature under a metal gasket cover for 30 minutes. Subsequently, 3.125 uL of substrate mix were added to each well using the BioRaptr, reaching a final assay volume of 12.5 uL, and the plate was monitored using a Pherastar FS by 1 read per minute for 30 minutes in fluorescence mode, excitation wavelength is 400 nm and emission wavelength is 510 nm.
The data analysis was performed first in excel, where the slopes of the measured fluorescence from each sample were determined using MARS software from BMG LABTECH. These rates were then multiplied by 10,000 for visualization purposes. The rates, multiplied by 10,000, were normalized to 0% and 100% activity based on the average values of the samples with either 2 uM inhibitor (S)-3-((3S,6S)-3-((2S,3S)-2-acetamido-3-methylpentanamido)-4-oxo-1,2,3,4,6,7-hexahydroazepino[3,2,1-hi]indole-6-carboxamido)-4-oxobutanoic acid, or no inhibitor respectively. All samples were then normalized against these values using the formula={100−[(sample−100% inhib)/0% inhib]}*100 to achieve a normalized percent inhibition. Normalized percent inhibition versus concentration inhibitor was then plotted in Graphpad Prism version 9.0.0 and a variable slope (four parameters) fit was calculated for each inhibitor.

[2] = biological target: human Granzyme B (hGranzyme B) (Homo sapiens, UniProt P10144); experiment: Surface plasmon resonance (SPR) binding kinetics to hGranzyme B; conditions: 25° C., 1:1 binding model, KD=kd/ka; read-out: Granzyme B SPR Kd
Experimental: The kinetics of test peptide binding to human Granzyme B (hGranzyme B) was determined by SPR. All experiments were performed at 25° C. using the Biacore 8k+ instrument (Cytiva, Marlborough, MA). The Biacore 8k+ Insight Evaluation Software Version 3.0 was used to fit the data with a 1:1 binding model to determine the association rate constant ka (M^−1s^−1, where “M” ~equals molar and “s” ~equals seconds) and the dissociation rate constant kd (s^−1). These rate constants were used to calculate the equilibrium dissociation constant. KD (M)=kd/ka.
To measure the binding kinetics of peptides of interest, surfaces were prepared by a capture method to a Series S Streptavidin (SA) chip using a 1×HBS-EP+ running buffer (Cytiva). hGranzyme B was diluted to 10 μg/mL in IX HBS-EP+ and flowed over spot 2 of each flow cell on the chip at a flow rate of 10 ul/min for 20 s to achieve a level of capture of ~1100 RU. An unmodified spot 1 of each flow cell was used as a matrix binding control or reference surface. Binding kinetics were measured using single cycle kinetics at 25° C. by injecting 5 concentrations with 3-fold serial dilutions of test peptides from 0.01 μM to 1 μM. Compound dilutions were performed manually in a running buffer containing 1×HBS-EP+(Cytiva), and a final concentration of 2% DMSO. The interaction analyses over hGranzyme B, were performed using a 120 s association time and a 900 s dissociation time. All experiments were conducted at a flow rate of 50 μL/min with a data collection rate of 10 Hz.
Peptide dilution series included 2 zero concentration points (no compound) which were averaged and subtracted from the peptide concentration injection as DMSO control responses. Binding data acquired from the reference surface (matrix binding control) were subtracted from the binding data for hGranzyme B surface on the chip to determine specific binding. Next, the association phase data were solvent corrected to account for any signal fluctuation throughout the experiment due to subtle DMSO concentration differences. Corrected response data were analyzed using the Biacore 8k+ Evaluation Software Version 3.0 according to the manufacturer. SPR data for representative compounds of the disclosure are found in Table 8.

human Granzyme B [3] = biological target: T1, human Granzyme B (human, UniProt P10144 21-247); experiment: SPR, Biacore 8k+, hGranzyme B captured on SA chip, single cycle kinetics, 1:1 model
T1 construct: Captured on a Series S Streptavidin chip for SPR; also called hGranzyme B; GzmB

human Granzyme B [4] = biological target: T1, human Granzyme B; experiment: cell-based or functional assay

T1 sequence (P10144 21-247 limits assumed): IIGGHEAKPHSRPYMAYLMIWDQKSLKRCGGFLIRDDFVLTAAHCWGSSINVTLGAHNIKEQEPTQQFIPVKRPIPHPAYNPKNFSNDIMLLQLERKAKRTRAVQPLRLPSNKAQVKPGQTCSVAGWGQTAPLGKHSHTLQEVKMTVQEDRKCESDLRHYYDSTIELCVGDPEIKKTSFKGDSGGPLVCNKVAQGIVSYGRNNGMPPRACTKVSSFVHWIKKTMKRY
Sequence of Human Granzyme B (P10144 21-247): as the sequence (P10144 21-247 limits assumed) above

IC50 (Human Granzyme B [1])	Human Granzyme B IC50 (fluorogenic substrate enzyme inhibition assay) (human Granzyme B [4])	Molecule	other results
< 8 nM		C[C@@H](O)[C@@H]1NC(=O)[C@H](CC(=O)O)NC(=O)[C@@H]2C[C@@H](F)CN2C(=O)[C@H](CO)NC(=O)[C@H](CCC(N)=O)NC(=O)[C@H](CC(=O)O)NC(=O)[C@H](CCC(=O)O)NC(=O)[C@H](Cc2ccccc2)NC(=O)[C@H](CC(N)=O)NC(=O)[C@H](Cc2ccccc2)NC(=O)CSC[C@@H](C(=O)NCC(=O)NCC(=O)N[C@@H](CCCCNC(=S)Nc2ccc(CC3CN(CC(=O)O)CCN(CC(=O)O)CCN3CC(=O)O)cc2)C(N)=O)NC(=O)[C@@H]2CCCN2C(=O)[C@H](CCC(N)=O)NC(=O)[C@H](Cc2c[nH]c3ccccc23)NC1=O (single isomer, unassigned) [Compound 12a, *F.N.F.E.D.Q.S.Prot4F.D.T.W.Q.P.*C.G.G.K(NOTA-1).NH2]	
< 8 nM		C[C@@H]1NC(=O)[C@H](CO)NC(=O)[C@H](CCC(N)=O)NC(=O)[C@H](CC(=O)O)NC(=O)[C@H](CCC(=O)O)NC(=O)[C@H](Cc2ccccc2)NC(=O)[C@H](CC(N)=O)NC(=O)[C@H](Cc2ccccc2)NC(=O)CSC[C@@H](C(=O)NCC(N)=O)NC(=O)[C@@H]2CCCN2C(=O)[C@H](CCC(N)=O)NC(=O)[C@H](Cc2c[nH]c3ccccc23)NC(=O)[C@H]([C@@H](C)O)NC(=O)[C@H](CC(=O)O)NC1=O [Compound 1a, *F.N.F.E.D.Q.S.A.D.T.W.Q.P.*C.G.NH2] ({CH2CO}-FNFEDQSADTWQPCG-NH2; thioether N-14)	
< 8 nM		C[C@@H]1NC(=O)[C@H](CO)NC(=O)[C@H](CCC(N)=O)NC(=O)[C@H](CC(=O)O)NC(=O)[C@H](CCC(=O)O)NC(=O)[C@H](Cc2ccccc2)NC(=O)[C@H](CC(N)=O)NC(=O)[C@H](Cc2ccccc2)NC(=O)CSC[C@@H](C(=O)NCC(=O)NCC(=O)N[C@@H](CCCCNC(=S)Nc2ccc(CC3CN(CC(=O)O)CCN(CC(=O)O)CCN3CC(=O)O)cc2)C(N)=O)NC(=O)[C@@H]2CCCN2C(=O)[C@H](CCC(N)=O)NC(=O)[C@H](Cc2c[nH]c3ccccc23)NC(=O)[C@H]([C@@H](C)O)NC(=O)[C@H](CC(=O)O)NC1=O (some centres unmarked) [Compound 2a, *F.N.F.E.D.Q.S.A.D.T.W.Q.P.*C.G.G.K(NOTA-1).NH2] ({CH2CO}-FNFEDQSADTWQPCGGK(X1)-NH2; thioether N-14)	
< 8 nM		C[C@@H](O)[C@@H]1NC(=O)[C@H](CC(=O)O)NC(=O)[C@@H]2CCCN2C(=O)[C@H](CO)NC(=O)[C@H](CCC(N)=O)NC(=O)[C@H](CC(=O)O)NC(=O)[C@H](CCC(=O)O)NC(=O)[C@H](Cc2ccccc2)NC(=O)[C@H](CC(N)=O)NC(=O)[C@H](Cc2ccccc2)NC(=O)CSC[C@@H](C(=O)NCC(N)=O)NC(=O)[C@@H]2CCCN2C(=O)[C@H](CCC(N)=O)NC(=O)[C@H](Cc2c[nH]c3ccccc23)NC1=O [Compound 25a, *F.N.F.E.D.Q.S.P.D.T.W.Q.P.*C.G.NH2] ({CH2CO}-FNFEDQSPDTWQPCG-NH2; thioether N-14)	
		C[C@@H](O)[C@@H]1NC(=O)[C@H](CC(=O)O)NC(=O)[C@@H]2CCCN2C(=O)[C@H](CO)NC(=O)[C@H](CCC(N)=O)NC(=O)[C@H](CC(=O)O)NC(=O)[C@H](CCC(=O)O)NC(=O)[C@H](Cc2ccccc2)NC(=O)[C@H](CC(N)=O)NC(=O)[C@H](Cc2ccccc2)NC(=O)CSC[C@@H](C(=O)NCC(N)=O)NC(=O)[C@@H]2Cc3ccccc3CN2C(=O)[C@H](CCC(N)=O)NC(=O)[C@H](Cc2c[nH]c3ccccc23)NC1=O [Compound 53a, *F.N.F.E.D.Q.S.P.D.T.W.Q.Tic.*C.G.NH2] ({CH2CO}-FNFEDQSPDTWQ[Tic]CG-NH2; thioether N-14)	Kd [2]: 4.9 nM
		C[C@@H]1C[C@H]2C(=O)N[C@H](C(=O)NCC(N)=O)CSCC(=O)N[C@@H](Cc3ccccc3)C(=O)N[C@@H](CC(N)=O)C(=O)N[C@@H](Cc3ccccc3)C(=O)N[C@@H](CCC(=O)O)C(=O)N[C@@H](CC(=O)O)C(=O)N[C@@H](CCC(N)=O)C(=O)N[C@@H](CO)C(=O)N3CCC[C@H]3C(=O)N[C@@H](CC(=O)O)C(=O)N[C@@H]([C@@H](C)O)C(=O)N[C@@H](Cc3c[nH]c4ccccc34)C(=O)N[C@@H](CCC(N)=O)C(=O)N2C1 [Compound 55a, *F.N.F.E.D.Q.S.P.D.T.W.Q.Prot4Me.*C.G.NH2] ({CH2CO}-FNFEDQSPDTWQ[Pro(4R-Me)]CG-NH2; thioether N-14)	Kd [2]: 5.1 nM
		C[C@@H](O)[C@@H]1NC(=O)[C@H](CC(=O)O)NC(=O)[C@@H]2C[C@@H](F)CN2C(=O)[C@H](CO)NC(=O)[C@H](CCC(N)=O)NC(=O)[C@H](CC(=O)O)NC(=O)[C@H](CCC(=O)O)NC(=O)[C@H](Cc2ccccc2)NC(=O)[C@H](CC(N)=O)NC(=O)[C@H](Cc2ccccc2)NC(=O)CSC[C@@H](C(=O)NCC(=O)NCC(=O)N[C@@H](CCCCN)C(N)=O)NC(=O)[C@@H]2CCCN2C(=O)[C@H](CCC(N)=O)NC(=O)[C@H](Cc2c[nH]c3ccccc23)NC1=O [Compound 87a, *F.N.F.E.D.Q.S.Prot4F.D.T.W.Q.P.*C.G.G.K.NH2] ({CH2CO}-FNFEDQS[Pro(trans-4-F)]DTWQPCGGK-NH2; thioether N-14)	Kd [2]: 4.2 nM
	< 8 nM	{CH2CO}-FNFEDQS[Pro(trans-4-F)]DTWQPCGGK(NOTA‑1)-NH2 (thioether N-14) [Compound 12a]	Kd (human Granzyme B [3]): 1.6 nM
	< 8 nM	{CH2CO}-FNFEDQSADTWQPCGGK(NOTA‑1)-NH2 (thioether N-14) [Compound 2a]	Kd (human Granzyme B [3]): 13.5 nM
	< 8 nM	Compound 5a (linker I:17-II:17 via PEG2′; also: dimer of two macrocycles linked by PEG2 between Lys17 side chains, thioether at chain A 14 to a chain's N-terminus, thioether at chain B 14 to a chain's N-terminus, Dimer of two macrocycles linked by PEG2) peptide 1: {‑CH2C(O)‑}-FNFEDQSADTWQPCGGK-NH2 peptide 2: {‑CH2C(O)‑}-FNFEDQSADTWQPCGGK-NH2	
	< 8 nM	{CH2CO}-FNFEDQSADTWQPCG-NH2 (thioether N-14; SMILES C[C@@H]1NC(=O)[C@H](CO)NC(=O)[C@H](CCC(N)=O)NC(=O)[C@H](CC(=O)O)NC(=O)[C@H](CCC(=O)O)NC(=O)[C@H](Cc2ccccc2)NC(=O)[C@H](CC(N)=O)NC(=O)[C@H](Cc2ccccc2)NC(=O)CSC[C@@H](C(=O)NCC(N)=O)NC(=O)[C@@H]2CCCN2C(=O)[C@H](CCC(N)=O)NC(=O)[C@H](Cc2c[nH]c3ccccc23)NC(=O)[C@H]([C@@H](C)O)NC(=O)[C@H](CC(=O)O)NC1=O) [Compound 1a]	Kd (human Granzyme B [3]): 19.8 nM

Reference: patent US20260207798A1, “CYCLIC PEPTIDES AS PET IMAGING AGENTS OF GRANZYME B” (priority 2022, published 2026)
